According to publication PMC2195641 (The Journal of Experimental Medicine, 1999):
pIC50: −log10 of the molar value. Where a SMILES comes first, the peptide text is derived from it.

Target: T1, purified I-E^k molecules (Mus musculus, UniProt P04224+P04231)
T1 sequence (P04224 26-255): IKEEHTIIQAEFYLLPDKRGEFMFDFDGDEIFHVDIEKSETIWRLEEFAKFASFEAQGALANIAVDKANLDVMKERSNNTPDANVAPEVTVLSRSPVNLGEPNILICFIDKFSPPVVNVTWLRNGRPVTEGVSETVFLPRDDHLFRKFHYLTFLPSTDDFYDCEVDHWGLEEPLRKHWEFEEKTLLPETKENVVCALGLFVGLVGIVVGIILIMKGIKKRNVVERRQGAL
T1 sequence (P04231 1-232): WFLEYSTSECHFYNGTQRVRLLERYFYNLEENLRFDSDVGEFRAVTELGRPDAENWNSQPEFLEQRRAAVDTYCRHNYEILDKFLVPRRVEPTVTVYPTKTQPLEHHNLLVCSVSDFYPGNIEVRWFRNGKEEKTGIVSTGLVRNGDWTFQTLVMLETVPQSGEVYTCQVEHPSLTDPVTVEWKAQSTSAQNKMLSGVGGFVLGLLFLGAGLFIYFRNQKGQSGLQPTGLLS
Assay: I-E^k binding assay

Q: With `CC[C@H](C)[C@H](NC(=O)[C@H](C)NC(=O)[C@H](C)NC(=O)[C@H](C)NC(=O)[C@H](C)NC(=O)[C@H](C)NC(=O)[C@H](C)NC(=O)[C@H](C)N)C(=O)N[C@@H](C)C(=O)N[C@@H](Cc1ccc(O)cc1)C(=O)N[C@@H](C)C(=O)N[C@@H](CCCCN)C(=O)N[C@@H](CCC(N)=O)C(=O)N[C@@H](C)C(=O)N[C@H](C(=O)N[C@@H](CCCCN)C(=O)O)[C@@H](C)O` [pMCC-A] (H-AAAAAAAIAYAKQATK-OH) as the compound, how does the pIC50 read?
A: 7.44
